What was measured:
[1] = target: collapsin response mediator protein 2 (CRMP-2) (Homo sapiens, UniProt Q16555); conditions: statement quoted from poster, Stoehr et al., November 2006; cited from earlier work
[2] = test system: acute EAE induced by MBP/CFA; assay: Acute experimental allergic encephalomyelitis (EAE) rat model; type: in vivo, female Lewis rats; conditions: days 0-21, vehicle-treated animals onset at day 9, significantly postponed
Description: EAE is induced in female Lewis rats on day zero of the study by a single inoculum injection of myelin basic protein (MBP) and complete Freund's adjuvant (CFA) containing heat killed Mycobacterium tuberculosis F137 Ra at a concentration of 4 mg/ml (MD Biosciences Ltd, Israel). This MBP/CFA encephalitogenic emulsive inoculum (100 μg MBP+200 μg CFA) is injected at a total dose volume of 100 μl/animal, delivered as 2×50 subcutaneous bilateral injections into the intraplanar paw regions.
Lacosamide is administered by intraperitoneal (i.p.) injection twice daily (b.i.d.) on days 0-21 of the study, in a volume of 10 ml/kg at daily doses of 6, 20 and 60 mg/kg. A vehicle control containing no lacosamide is administered by the same route and at the same frequency.
The duration of the study is 21 days. Careful clinical examinations are carried out and recorded at least once daily in addition to EAE clinical scoring and assessment. […]
Initially, all animals are examined for signs of any neurological responses and symptoms prior to EAE induction (day 0) and thereafter examined on a daily basis through the entire 21-day observation period. To avoid experimental bias, EAE reactions are determined in a blinded fashion, as much as possible, by a staff member unaware of the specific treatment applied. […]

COC[C@@H](NC(C)=O)C(=O)NCc1ccccc1 [lacosamide, (R)-2-acetamido-N-benzyl-3-methoxypropionamide]
Effect on CRMP-2 and on the effects of neurotrophic factors on axon growth [1]: modulates CRMP-2 and as a consequence attenuates the effects of neurotrophic factors on axon growth | Disease onset (day after EAE induction) ([2]; 10 mg/kg b.i.d. i.p.): 12 days | Disease onset (day after EAE induction) ([2]; 30 mg/kg b.i.d. i.p.): 12 days

Reference: patent US20100260716A1, “COMPOUNDS FOR TREATING DEM[…]” (UCB PHARMA GMBH, priority 2007, published 2010)
